Measurements published in publication PMC11836371, “Virtual fragment screening for DNA repair inhibitors in vast chemical space” (Nature Communications, 2025).
In brackets after ≈: the same amount, converted by molar mass. Several values for one entry are separate records, joined by “and”; a condition that tells them apart may be missing. Equal values may be shown once. Read-outs that look alike come from different tables or passages of the source.

Tests used:
[1] = test system: A549 cells; experiment: Cancer cell viability assay (resazurin), A549; format: cell-based; conditions: two independent experiments; for percentage cell viability: A549, 100 μM, 100 µM; for viability at 100 µM: Homo sapiens, A549, A549, 100 μM, read-out: percentage cell viability
Summary of the method: (§1)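 Cells were exposed for 72 h at 37 °C, 5% CO2 to 11-point compound dose-response curves in 10% FBS medium. Resazurin (final 10 µg/mL) was then added for 6 h and resorufin fluorescence read (ex 544/em 595 nm). Viability relative to untreated wells; EC50 from curve fitting.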

[2] = test system: HCT116 cells; experiment: Cancer cell viability assay (resazurin), HCT116; format: cell-based; conditions: two independent experiments; for percentage cell viability: HCT116, 100 μM, 100 µM
Summary of the method: as §1

[3] = target: T1, human OGG1 enzyme (Homo sapiens, UniProt O15527); experiment: Differential scanning fluorimetry (DSF) thermal shift assay; format: binding; parameters: ∆Tm (K): unit of the concentration uncertain; conditions: for ΔTm: concentration not given
T1 sequence (O15527 whole entry): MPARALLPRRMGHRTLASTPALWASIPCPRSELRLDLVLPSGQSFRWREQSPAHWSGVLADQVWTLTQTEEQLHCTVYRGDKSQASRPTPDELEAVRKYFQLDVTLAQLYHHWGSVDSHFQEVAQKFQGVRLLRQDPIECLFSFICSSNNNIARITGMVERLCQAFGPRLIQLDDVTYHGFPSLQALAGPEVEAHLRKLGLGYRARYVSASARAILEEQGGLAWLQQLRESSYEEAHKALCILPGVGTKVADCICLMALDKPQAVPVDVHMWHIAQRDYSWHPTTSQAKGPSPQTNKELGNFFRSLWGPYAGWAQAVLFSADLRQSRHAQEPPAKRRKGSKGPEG
Description: The temperature was increased from 20 °C to 85 °C with 10 readings/degree. Tm values were calculated using an excel template and fitting to the Boltzmann equation in Prism v.6.07 (GraphPad Software).

[4] = test system: A2780 cells; experiment: Cancer cell viability assay (resazurin), A2780; format: cell-based; conditions: two independent experiments; for percentage cell viability: A2780, 100 μM, 100 µM; for viability at 100 µM: Homo sapiens, A2780, A2780, 100 μM, read-out: percentage cell viability
Summary of the method: as §1

[5] = target: T1, human OGG1 enzyme; experiment: OGG1 glycosylase activity assay (enzyme inhibition, APE1-coupled fluorescence); format: biochemical; conditions: for increase of inhibitory potency compared to fragment 1: ratio of IC50 values
Description: “8” signifies 8-oxoA and “FAM” and “Dab” signify fluorescein and dabcyl (TriLink Biotech). Briefly, compounds dissolved in DMSO were dispensed using an Echo 550 (Labcyte), followed by transfer of enzyme and substrate solutions manually with a 16-channel pipette or with a Multidrop (Thermo Scientific). The plates were centrifuged, sealed and incubated at room temperature overnight (15 h) and read the following morning in an Hidex Sense plate reader (Hidex Oy) using a 485-nm filter with a bandwidth of 10 nm for excitation and a 535-nm filter with a bandwidth of 20 nm for emission.

[6] = Thermodynamic solubility; format: physicochemical; conditions: for solubility thermodynamic: thermodynamic from solid
[7] = Cell viability assay (resazurin), BJhTERT non-transformed control; format: cell-based; conditions: human, BJhTERT immortalized fibroblast cells, BJhTERT, 100 μM, two independent experiments; read-out: percentage cell viability
Summary of the method: (§2)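 Cells in FBS-supplemented media exposed to compound for 72 h at 37 °C, 5% CO2, then resazurin added to 10 µg/mL final. Viability expressed relative to untreated control wells; EC50 derived by curve fitting.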

[8] = test system: BJhTERT cells; experiment: as above; format: cell-based; conditions: BJhTERT, 100 μM, two independent experiments
Summary of the method: as §2

[9] = Caco-2 cell permeability assay; format: in vitro ADME; conditions: human, Caco-2, pH 7.4; for Papp A→B at 60 min, 10 µM: read-out: Papp AB (10–6 cm/s); for Papp B→A at 60 min, 10 µM: read-out: Papp BA (10–6 cm/s)
Description: Prior to the experiment a drug solution of 10 µM was prepared and warmed to 37 °C. The Caco-2 filters were washed with pre-warmed HBSS prior to the experiment, and thereafter the experiment was started by applying the donor solution on the apical or basolateral side. The transport experiments were carried out at pH 7.4 in both the apical and basolateral chamber. The experiments were performed at 37 °C and with a stirring rate of 500 rpm. The receiver compartment was sampled at 15, 30, and 60 min, and at 60 min also a final sample from the donor chamber was taken to calculate the mass balance of the compound. The samples (100 µL) were transferred to a 96-well plate containing 100 µL methanol and Warfarin as IS and was sealed until analyzed by liquid chromatography coupled to triple quadrupole mass spectrometry (LC-MS/MS).

[10] = 99 (unit uncertain) as printed in sheet footnote
[11] = Figure 3B source data, three independent experiments, read-out: IC50 OGG1

Row | Structure (SMILES) | percentage cell viability [1] [%] | viability at 100 µM [1] [%] | percentage cell viability [2] | ∆Tm (K) ([3]; 99 μM) | ∆Tm (K) [3, 10] [K] | ΔTm [3] [K] | percentage cell viability [4] [%] | viability at 100 µM [4] [%] | OGG1 inhibition, dose-response (Figure2C) ([5]; Concentration (M) 1.93e-7) | OGG1 inhibition, dose-response (Figure2C) ([5]; Concentration (M) 3.87e-7) | OGG1 inhibition, dose-response (Figure2C) ([5]; Concentration (M) 7.73e-7) | OGG1 inhibition, dose-response (Figure2C) ([5]; Concentration (M) 1.55e-6) | OGG1 inhibition, dose-response (Figure2C) ([5]; Concentration (M) 3.09e-6) | OGG1 inhibition, dose-response (Figure2C) ([5]; Concentration (M) 6.19e-6) | OGG1 inhibition, dose-response (Figure2C) ([5]; Concentration (M) 1.24e-5) | OGG1 inhibition, dose-response (Figure2C) ([5]; Concentration (M) 2.48e-5) | OGG1 inhibition, dose-response (Figure2C) ([5]; Concentration (M) 4.95e-5) | OGG1 inhibition, dose-response (Figure2C) ([5]; Concentration (M) 9.9e-5) | IC50 [5, 11] | increase of inhibitory potency compared to fragment 1 [5] [fold] | also measured
1 | Cc1nc(-c2cc(F)c(CC(=O)Nc3noc4c3CCCC4)c(F)c2)c(C)[nH]1 [compound 23] | 73.95 | 60.6 | 61.96% and 97.34% | 9.0 ± 0.2 | 9.0 ± 0.2 | 9.0 | 42.92 | 33.8 | 9.69 and 17.93 and 10.41 and 18.5 | 29.24 and 27.63 and 28.59 and 28.11 | 53.6 and 49.32 and 48.44 and 47.84 | 59.42 and 67.01 and 59.08 and 66.62 | 78.97 and 77.03 and 76.1 and 78.52 | 89 and 85.95 and 85.06 and 85.7 | 91.41 and 94.39 and 90.13 and 92.43 | 94.22 and 97.46 and 92.46 and 96.53 | 94.91 and 98.52 and 101.44 and 105.23 | 93.34 and 96.5 and 102.87 and 104.38 | 442 nM and 646 nM and 620 nM | > 165 | IC50 ([5]; read-out: IC50): 600 nM; solubility thermodynamic ([6]; single replicate): 16 µM (≈ 6.18 µg/mL); viability at 72 h, 100 µM [7]: 67.4%; percentage cell viability [8]: 68.66%; Papp A→B at 60 min, 10 µM [9]: 6.13 ×10⁻⁶ cm/s; Papp B→A at 60 min, 10 µM [9]: 94.2 ×10⁻⁶ cm/s
2 | Cc1nc(-c2ccc(CC(=O)Nc3noc4c3CCCC4)cc2)c(C)[nH]1 [compound 17] | 56.76 | 52.6 | 23.58% | 8.1 ± 0.1 | 8.1 ± 0.1 | 8.1 | 6.29 | 5.42 | 17.95 and 20.93 and 16.93 and 26.66 | 29.14 and 34.59 and 30.82 and 38.2 | 44.06 and 48.74 and 48.24 and 52.23 | 58.26 and 62.87 and 66.96 and 67.73 | 72.68 and 77.92 and 76.19 and 83.17 | 85.12 and 84.21 and 85.13 and 86.27 | 90.55 and 92.85 and 89.92 and 91.47 | 92.75 and 97.64 and 93.54 and 94.76 | 96.49 and 97.45 and 94.85 and 97.57 | 96.97 and 96.91 and 94.08 and 97.24 | 505 nM and 495 nM and 518 nM | > 165 | viability at 100 µM ([2]; Homo sapiens, HCT-116, HCT116, 100 μM, read-out: percentage cell viability): 11.8%; ∆Tm (K) ([3]; 99 μM, listed as Compound 17): 8.1 K; IC50 ([5]; read-out: IC50): 600 nM; fold higher solubility than TH5487 [6]: > 600 fold and > 667 fold; solubility thermodynamic [6]: 667 µM (≈ 234 µg/mL); viability at 72 h, 100 µM [7]: 28%; percentage cell viability [8]: 38.43%; efflux ratio at 60 min, 10 µM [9]: 6.7; Papp A→B at 60 min, 10 µM [9]: 19.8 ×10⁻⁶ cm/s; Papp B→A at 60 min, 10 µM [9]: 134 ×10⁻⁶ cm/s
